40 substances from US20240384268A1, “Oligonucleotides” (Hudson Institute of Medical Research, priority 2021, published 2024) can be followed below.

In the oligonucleotide strings, read from the 5' end, every base follows the letter of its sugar. An asterisk marks phosphorothioate; unmarked linkages are phosphodiester. Other units and linkages are bracketed, terminal groups are in braces. A string of capitals states the bases alone. d = 2'-deoxy (DNA)

The first series concerns the target T1, human TLR7 (Homo sapiens, UniProt Q9NYK1).
T1 construct: HA; host or cells: 293XL-hTLR7-HA (HEK293)
T1 sequence (Q9NYK1 27-1049): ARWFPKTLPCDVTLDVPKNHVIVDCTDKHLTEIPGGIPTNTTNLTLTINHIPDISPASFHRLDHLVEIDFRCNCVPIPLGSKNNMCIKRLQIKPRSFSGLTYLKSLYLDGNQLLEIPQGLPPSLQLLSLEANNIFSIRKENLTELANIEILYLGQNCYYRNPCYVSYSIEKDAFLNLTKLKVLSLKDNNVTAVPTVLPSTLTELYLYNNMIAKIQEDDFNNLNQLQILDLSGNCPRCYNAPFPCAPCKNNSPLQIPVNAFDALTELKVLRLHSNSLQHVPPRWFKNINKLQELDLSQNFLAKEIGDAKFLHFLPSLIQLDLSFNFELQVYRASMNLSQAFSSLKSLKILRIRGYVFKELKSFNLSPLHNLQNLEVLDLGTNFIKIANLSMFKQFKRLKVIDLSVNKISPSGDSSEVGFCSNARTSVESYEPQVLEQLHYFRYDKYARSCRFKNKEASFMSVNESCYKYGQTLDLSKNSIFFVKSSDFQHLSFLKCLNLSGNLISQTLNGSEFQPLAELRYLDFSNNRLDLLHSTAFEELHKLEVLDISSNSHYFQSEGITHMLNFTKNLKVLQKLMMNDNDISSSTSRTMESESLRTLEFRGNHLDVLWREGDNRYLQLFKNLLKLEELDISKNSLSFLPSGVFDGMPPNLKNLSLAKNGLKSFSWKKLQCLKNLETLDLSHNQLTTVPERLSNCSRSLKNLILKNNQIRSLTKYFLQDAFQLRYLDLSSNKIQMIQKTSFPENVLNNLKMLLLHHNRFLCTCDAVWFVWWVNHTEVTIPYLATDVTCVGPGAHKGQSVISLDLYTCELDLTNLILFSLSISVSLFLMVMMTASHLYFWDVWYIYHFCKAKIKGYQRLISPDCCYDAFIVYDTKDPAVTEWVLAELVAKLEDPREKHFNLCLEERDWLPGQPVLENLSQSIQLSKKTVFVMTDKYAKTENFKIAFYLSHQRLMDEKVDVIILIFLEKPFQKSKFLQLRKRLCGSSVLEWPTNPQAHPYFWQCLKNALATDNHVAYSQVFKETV
Put plainly: HEK-TLR7 NF-κB-luciferase reporter, R848 stimulation. It is filed as cell-based. The conditions noted are these: HEK-TLR7; 2 μM 3-mer DNA on a PS backbone; R848. The protocol: In such examples, inhibition of TLR7 activity can be identified by observation of an overall decreased TLR7 response of the cell population, or a lower proportion of cells having TLR7-positive activity as compared to positive control condition in which cells are treated with TLR7 agonist in the absence of the oligonucleotide (or in the presence of an appropriate control inhibitory agent). In one example, 293XLhTLR7 (referred to as HEK-TLR7) cells are transfected with pNF-κB-Luc4 reporter, incubated with an oligonucleotide, and then stimulated with R848. TLR7 activity can be determined by a luciferase assay, which measures activated NF-κB by luminescence. TLR7 activity can also be analysed by measuring cytokine levels, for example by ELISA. […] TLR7 activity may then be assessed by the gene or protein expression of TLR7-responsive genes, such as Tnfα and Oas3.
For cGAS stimulations, cells were treated for indicated duration with ASOs, prior to transfection with ISD70 (human cells) or ISD45 (mouse cells) (the ASOs were not washed off prior to ISD transfection unless otherwise indicated). The cGAS ligands ISD45 (Stetson and Medzhitov, 2006) and ISD70 (also known as VACV-70 (Unterholzner et al., 2010)) (Table 1) were resuspended as follows: 5 1d of sense and 5 μl of antisense strands at 10 μg/μl were added to 90 μl PBS under sterile conditions, heated at 75° C. for 30 min, prior to letting cool down at room temperature and aliquoting (stock at 1 μg/1 l). The ISDs were transfected at a concentration of […] at a ratio of 1 μg:1 μl with Lipofectamine 2000 in Opti-MEM (Thermo Fisher Scientific). HEK-TLR3, HEK-TLR7 and […] were treated with indicated concentration of ASOs for 20-50 min, prior to stimulation with poly(I:C) (Invivogen), R848 (Invivogen), Motolimod (MedChemExpress) and the Class B CpG oligonucleotides ODN 2006 (synthesised by IDT and resuspended in RNase-free TE buffer [Table 1]), respectively. The TLR2/1 agonist PAM3CSK4 (Invivogen), the TLR4 agonist lipopolysaccharide (Invivogen), the Class B CpG oligonucleotides ODN 1826 (synthesised by IDT and resuspended in RNase-free TE buffer), the mouse Sting agonist DMXAA (Cayman) and the human STING agonist (compound #3 from (Raanjulu et al., 2018), referred to as GSK herein—kind gift from Cancer Therapeutics CRC, Australia) were used at indicated concentrations. Aspirin (Sigma—A2093) was resuspended in pure medium to 10 mM, filter sterilised and added to the cells at 2 mM final. All ASOs were synthesised by Integrated DNA Technologies (IDT), and resuspended in RNase-free TE buffer, pH 8.0 (Thermo Fisher Scientific). Cell viability was assessed by adding 1× fresh resazurin solution to the wells (10λ solution made up with 7 mg resazurin [Sigma—R7017] dissolved in 3.5 ml PBS, sterile filtered at […]) for 4 h, prior to reading at with a Fluostar OPTIMA (BMG LABTECH) plate-reader (fluorescence: Excitation 535 nm, Emission 590); wells with medium only and 1× resazurin were used as blanks.
Following transfection, the cells were collected from the 6-wells and aliquoted into 96-wells, just before ASO and overnight TLR stimulation (as above described). Similarly, the LL171 cells expressing and ISRE-Luc reporter were treated overnight.
In general terms: A reporter such as luciferase makes a cellular process visible.
In the case of dT*dC*dT [TCT], the “inhibition of TLR7 by 3-mer DNA PS oligos” value is listed as “two most potent DNA 3-mers inhibiting TLR7”.
As to dT*dT*dT [TTT], the “inhibition of TLR7 by 3-mer DNA PS oligos” value is “two most potent DNA 3-mers inhibiting TLR7”.

In the next series the target is T2, TLR3 (Homo sapiens, UniProt O15455).
T2 sequence (O15455 24-904): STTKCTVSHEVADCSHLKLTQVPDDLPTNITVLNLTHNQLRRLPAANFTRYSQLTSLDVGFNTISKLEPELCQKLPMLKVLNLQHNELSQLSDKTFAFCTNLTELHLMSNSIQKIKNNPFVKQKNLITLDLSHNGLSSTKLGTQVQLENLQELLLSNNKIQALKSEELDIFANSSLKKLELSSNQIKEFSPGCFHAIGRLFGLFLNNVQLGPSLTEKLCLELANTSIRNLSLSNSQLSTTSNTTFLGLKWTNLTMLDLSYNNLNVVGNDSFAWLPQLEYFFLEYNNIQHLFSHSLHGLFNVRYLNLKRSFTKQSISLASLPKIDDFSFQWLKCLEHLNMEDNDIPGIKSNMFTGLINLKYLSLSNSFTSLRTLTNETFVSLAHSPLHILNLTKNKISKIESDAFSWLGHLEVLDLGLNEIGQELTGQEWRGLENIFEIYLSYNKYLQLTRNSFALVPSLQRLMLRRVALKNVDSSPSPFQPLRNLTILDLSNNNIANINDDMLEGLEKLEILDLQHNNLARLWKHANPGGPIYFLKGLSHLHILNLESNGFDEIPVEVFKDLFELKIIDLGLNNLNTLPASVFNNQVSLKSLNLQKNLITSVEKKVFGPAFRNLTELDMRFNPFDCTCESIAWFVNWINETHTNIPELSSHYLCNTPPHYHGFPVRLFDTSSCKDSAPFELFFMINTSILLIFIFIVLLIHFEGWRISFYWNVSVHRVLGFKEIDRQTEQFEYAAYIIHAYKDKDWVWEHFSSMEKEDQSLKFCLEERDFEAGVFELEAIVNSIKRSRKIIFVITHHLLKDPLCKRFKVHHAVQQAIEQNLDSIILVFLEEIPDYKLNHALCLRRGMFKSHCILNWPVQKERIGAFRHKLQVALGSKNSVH
Briefly: HEK-TLR3 NF-κB-luciferase reporter, poly(I:C) stimulation. Also noted: host or cells: HEK-Blue hTLR3 (HEK293). To be noted: 500 nM ASOs/ODNs, poly(I:C) 1 μg/ml. It is filed as cell-based.
For the substance “T*G*C* T*T*G* A*C*A* T*C*C* T*G*G* A*G*G* G*G*T* T*G*T (TGCTTGACATCCTGGAGGGGTTGT; DNA, all phosphorothioate, methylation of C not given here) [IRS957, reference compound]”, the “inhibition of polyI:C sensing by TLR3 at 500 nM (in words)” value (shortened to “inhibition of polyI:C sensing by TLR3”) is listed as “blocked polyL:C sensing”.
“T*G*C* T*T*G* C*A*A* G*C*T* T*G*C* A*A*G* C*A (TGCTTGCAAGCTTGCAAGCA; DNA, all phosphorothioate, methylation of C not given here) [IRS661, reference compound]”: the “inhibition of polyI:C sensing by TLR3” value is “blocked polyL:C sensing”.
As for “T*T*C* A*A*A* T*T*C* A*A*A* T*T*C* A*A*A* T*T*C* A*A*A (dT*dT*dC*dA*dA*dA*dT*dT*dC*dA*dA*dA*dT*dT*dC*dA*dA*dA*dT*dT*dC*dA*dA*dA) [C151, reference compound]”, the “inhibition of polyI:C sensing by TLR3” value is “only partially reduced polyL:C-dependent TLR3 activation”.

Staying with this series, now noted: 2 μM 3-mer DNA PS, 500 ng/ml polyI:C.
As to dT*dA*dC [TAC], the “inhibition of TLR3 sensing by 3-mer DNA PS oligos” value is reported as “strongest DNA 3-mer”.

Staying with this series, now noted: 3-mers DNA PS 45 min, then 500 ng/ml polyI:C overnight, NF-κB-luciferase normalised to polyI:C only (Ligand 1.000, NT 0.000).
For dA*dA*dT [AAT], the “TLR3 2uM” value worked out at 0.877.
In the case of dA*dC*dT [ACT], the “TLR3 2uM” value is 0.818.
With dA*dG*dT [AGT], the “TLR3 2uM” value was 0.865.
On the same count and under the same terms, under dA*dT*dA [ATA] stands 0.827.
On the same count and under the same terms, under dA*dT*dC [ATC] stands 0.834.
On to dA*dT*dG [ATG], for which the “TLR3 2uM” value is given as 0.849.
For the substance dA*dT*dT [ATT], the “TLR3 2uM” value is 1.012.
In the case of dC*dA*dT [CAT], the “TLR3 2uM” value stood at 0.828.
On the same count and under the same terms, for dC*dC*dT [CCT] the value was 0.914.
The same measure, in the same setting: under dC*dG*dT [CGT] stands 0.755; under dC*dT*dA [CTA], 0.864; under dC*dT*dC [CTC], 0.911.
On to dC*dT*dG [CTG], for which the “TLR3 2uM” value turned out to be 0.843.
On to dC*dT*dT [CTT], for which the “TLR3 2uM” value was 0.901.
On to dG*dA*dT [GAT], for which the “TLR3 2uM” value stood at 0.864.
As to dG*dC*dT [GCT], the “TLR3 2uM” value is 0.998.
Consider dG*dG*dT [GGT], for which the “TLR3 2uM” value is listed as 0.959.
In the case of dG*dT*dA [GTA], the “TLR3 2uM” value is on record as 0.818.
Take dG*dT*dC [GTC]: the “TLR3 2uM” value came to 0.914.
With dG*dT*dG [GTG], the “TLR3 2uM” value is 0.929.
Still for that read-out and setting: under dG*dT*dT [GTT] stands 1.009.
For the substance dT*dA*dA [TAA], the “TLR3 2uM” value was 0.968.
As for dT*dA*dC [TAC], the “TLR3 2uM” value worked out at 0.704.
dT*dA*dG [TAG]: the “TLR3 2uM” value stood at 0.769.
Take dT*dA*dT [TAT]: the “TLR3 2uM” value is given as 0.877.
On to dT*dC*dA [TCA], for which the “TLR3 2uM” value turned out to be 0.792.
Same read-out and setting: for dT*dC*dC [TCC] the value was 0.868; for dT*dC*dG [TCG], 0.931; for dT*dC*dT [TCT], 1.230.
As for dT*dG*dA [TGA], the “TLR3 2uM” value is recorded as 0.743.
Same read-out and setting: for dT*dG*dC [TGC] the value was 0.795; for dT*dG*dG [TGG], 0.773.
Still for that read-out and setting: for dT*dG*dT [TGT] the value was 0.884; for dT*dT*dA [TTA], 0.855; for dT*dT*dC [TTC], 0.928.
Turning to dT*dT*dG [TTG], the “TLR3 2uM” value worked out at 0.990.
With dT*dT*dT [TTT], the “TLR3 2uM” value came to 1.139.
